The values below come from patent publication US20060270677A1, “Method for the treatment of noise phobia in companion animals” (Wyeth, priority 2005, published 2006).

This data set in a line: in vivo. As to conditions: male, Beagle, dog, po. The source says:
In this evaluation 8 male Beagle breed dogs, 6 months to 2 years of age, and at least 10 kg in weight were used. Dogs were housed in individual indoor cages in compliance with standards outlined in the Guide for the Care and Use of Laboratory Animals of the Institute of Laboratory Animal resources, National Research Council. The dogs were fed an appropriate amount of standard commercial dry ration once per day. Fresh tap water in water bowls was provided ad libitum. On the day before the test compounds were administered, food was removed from the dogs by 4:00 pm. Food was withheld until after taking blood samples at the 4 h time point after administration of test materials. Dogs were weighed and ranked by descending weight order and were given physical exams by a veterinarian. The two heaviest dogs were randomly assigned to Group 1 or 2. The second two heaviest dogs were randomly assigned to Group 1 or 2 and so on, until all 8 dogs were placed into either of the two groups. Group 1 with 4 dogs/group, was treated orally with 15 mg/kg of the acetamide test compound and Group 2 was treated orally with 15 mg/kg of the carbonitrile test compound. One week after treatment all dogs were reweighed to ensure correct dosing. Two weeks after treatment, Group 1 was treated orally with 30 mg/kg of the acetamide test compound and Group 2 was treated orally with 30 mg/kg of the carbonitrile test compound. A treatment vial containing an appropriate amount of test compound was provided for each dog. The appropriate amount of vehicle (water containing 0.5% Methocel A4M and 0.01% polysorbate 80) was added to the vial and the contents of the vial were thoroughly mixed. The resultant suspension was withdrawn with an unarmed disposable 12 ml plastic syringe and administered to the dog. Test suspensions were administered to the back of the throat to ensure that they were reliably and completely swallowed by the dog. The vials were rinsed with 0.5 ml vehicle per kg of body weight and the rinsate was administered to the dog. Blood samples were collected at regular time intervals and analyzed for concentration of test compound. The Cmax value (the maximum compound concentration in the plasma) and the Tmax value (the time, after dosing, at which the peak compound concentration was obtained) were determined by observation. For Table I, the term “Acetamide” designates N-methyl-N-[3-(3-methyl-1,2,4-triazolo-[4,3-b]pyridazin-6-yl)phenyl]acetamide; and the term “Carbonitrile” designates 7-(3-pyridyl)pyrazolo[1,5-a]pyrimidine-3-carbonitrile.

The term Cmax denotes the peak of the concentration-time curve. A word on the Tmax: it is the time at which the peak concentration occurs.

In the case of `N#Cc1cnn2c(-c3cccnc3)ccnc12` [Carbonitrile, 7-(3-pyridyl)pyrazolo[1,5-a]pyrimidine-3-carbonitrile], the Cmax came out at 3700 ng/mL (15 mg/kg) and 6390 ng/mL (30 mg/kg). Further, the Tmax by setting is: (15 mg/kg) 4.25 h; (30 mg/kg) 8.25 h.
